# According to PubChem BioAssay (NCI):
#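 Results reflect a 48-hour exposure of cells in 96-well plates to compound at five concentrations. TGI denotes the concentration required for complete inhibition of growth.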
# Key:
# Assay in all cases: NCI anticancer screen, dose series, 48 h
# COLO 205 colon = test system: COLO 205 colon
# 786-0 renal = test system: 786-0 renal
# NCI-H226 lung = test system: NCI-H226 lung
# SK-OV-3 ovarian = test system: SK-OV-3 ovarian
# SK-MEL-28 melanoma = test system: SK-MEL-28 melanoma
# RXF 393 renal = test system: RXF 393 renal
# UACC-257 melanoma = test system: UACC-257 melanoma
# SK-MEL-5 melanoma = test system: SK-MEL-5 melanoma
# HCT-116 colon = test system: HCT-116 colon
# NCI-H23 lung = test system: NCI-H23 lung
# NCI-H522 lung = test system: NCI-H522 lung
# UACC-62 melanoma = test system: UACC-62 melanoma
# MDA-N = test system: MDA-N
# MDA-MB-435 = test system: MDA-MB-435
# HCT-15 colon = test system: HCT-15 colon
# OVCAR-3 ovarian = test system: OVCAR-3 ovarian
# U251 CNS = test system: U251 CNS
# SK-MEL-2 melanoma = test system: SK-MEL-2 melanoma
# SN12C renal = test system: SN12C renal
# SW-620 colon = test system: SW-620 colon
# T-47D breast = test system: T-47D breast
# SF-539 CNS = test system: SF-539 CNS
# SF-268 CNS = test system: SF-268 CNS
# SNB-75 CNS = test system: SNB-75 CNS
# HT29 colon = test system: HT29 colon
# NCI/ADR-RES ovarian = test system: NCI/ADR-RES ovarian
# HOP-92 NSCLC = test system: HOP-92 NSCLC
# SR leukemia = test system: SR leukemia
# KM12 colon = test system: KM12 colon
# CAKI-1 renal = test system: CAKI-1 renal
# DU-145 prostate = test system: DU-145 prostate
# RPMI-8226 leukemia = test system: RPMI-8226 leukemia
# MOLT-4 leukemia = test system: MOLT-4 leukemia
# A498 renal = test system: A498 renal
# LOX IMVI melanoma = test system: LOX IMVI melanoma
# OVCAR-5 ovarian = test system: OVCAR-5 ovarian
# OVCAR-4 ovarian = test system: OVCAR-4 ovarian
# HOP-62 NSCLC = test system: HOP-62 NSCLC
# SNB-19 CNS = test system: SNB-19 CNS
# TK-10 renal = test system: TK-10 renal
# UO-31 renal = test system: UO-31 renal
# HCC-2998 colon = test system: HCC-2998 colon
# EKVX NSCLC = test system: EKVX NSCLC
# NCI-H460 lung = test system: NCI-H460 lung
# SF-295 CNS = test system: SF-295 CNS
# CCRF-CEM leukemia = test system: CCRF-CEM leukemia
# ACHN renal = test system: ACHN renal
# M14 melanoma = test system: M14 melanoma
# HS 578T breast = test system: HS 578T breast
# MALME-3M melanoma = test system: MALME-3M melanoma
# HL-60(TB) leukemia = test system: HL-60(TB) leukemia
# K-562 leukemia = test system: K-562 leukemia
# A549 NSCLC = test system: A549 NSCLC
# OVCAR-8 ovarian = test system: OVCAR-8 ovarian
# IGROV1 ovarian = test system: IGROV1 ovarian
# PC-3 prostate = test system: PC-3 prostate
# MCF7 breast = test system: MCF7 breast
# BT-549 breast = test system: BT-549 breast
# MDA-MB-231 breast = test system: MDA-MB-231 breast
smiles,measurement,setting,value
Cc1nc2c(C)ccc([N+](=O)[O-])c2c(NCCCN(C)C)c1C,TGI,COLO 205 colon,47.6 µM
same,TGI,786-0 renal,> 100 µM
same,TGI,NCI-H226 lung,> 100 µM
same,TGI,SK-OV-3 ovarian,> 100 µM
same,TGI,SK-MEL-28 melanoma,> 54.8 µM
same,TGI,RXF 393 renal,> 100 µM
same,TGI,UACC-257 melanoma,54.5 µM
same,TGI,SK-MEL-5 melanoma,27.2 µM
same,TGI,HCT-116 colon,> 100 µM
same,TGI,NCI-H23 lung,> 100 µM
same,TGI,NCI-H522 lung,> 100 µM
same,TGI,UACC-62 melanoma,> 100 µM
same,TGI,MDA-N,> 100 µM
same,TGI,MDA-MB-435,> 100 µM
same,TGI,HCT-15 colon,> 54.2 µM
same,TGI,OVCAR-3 ovarian,> 100 µM
same,TGI,U251 CNS,> 100 µM
same,TGI,SK-MEL-2 melanoma,> 70.6 µM
same,TGI,SN12C renal,> 100 µM
same,TGI,SW-620 colon,> 53 µM
same,TGI,T-47D breast,> 100 µM
same,TGI,SF-539 CNS,> 100 µM
same,TGI,SF-268 CNS,> 100 µM
same,TGI,SNB-75 CNS,> 100 µM
same,TGI,HT29 colon,> 70.8 µM
same,TGI,NCI/ADR-RES ovarian,> 100 µM
same,TGI,HOP-92 NSCLC,> 100 µM
same,TGI,SR leukemia,> 100 µM
same,TGI,KM12 colon,> 100 µM
same,TGI,CAKI-1 renal,> 100 µM
same,TGI,DU-145 prostate,> 100 µM
same,TGI,RPMI-8226 leukemia,> 100 µM
same,TGI,MOLT-4 leukemia,> 100 µM
same,TGI,A498 renal,> 49.6 µM
same,TGI,LOX IMVI melanoma,> 100 µM
same,TGI,OVCAR-5 ovarian,> 100 µM
same,TGI,OVCAR-4 ovarian,> 100 µM
same,TGI,HOP-62 NSCLC,> 66.6 µM
same,TGI,SNB-19 CNS,> 100 µM
same,TGI,TK-10 renal,> 55.7 µM
same,TGI,UO-31 renal,> 100 µM
same,TGI,HCC-2998 colon,> 55.4 µM
same,TGI,EKVX NSCLC,> 100 µM
same,TGI,NCI-H460 lung,> 100 µM
same,TGI,SF-295 CNS,> 100 µM
same,TGI,CCRF-CEM leukemia,> 100 µM
same,TGI,ACHN renal,> 100 µM
same,TGI,M14 melanoma,37.6 µM
same,TGI,HS 578T breast,> 100 µM
same,TGI,MALME-3M melanoma,> 55.3 µM
same,TGI,HL-60(TB) leukemia,> 68.3 µM
same,TGI,K-562 leukemia,> 100 µM
same,TGI,A549 NSCLC,> 100 µM
same,TGI,OVCAR-8 ovarian,> 71.6 µM
same,TGI,IGROV1 ovarian,> 100 µM
same,TGI,PC-3 prostate,> 47.9 µM
same,TGI,MCF7 breast,> 100 µM
Cc1cccc2c(=O)c3c(O)cc(O)cc3n(C)c12,TGI,COLO 205 colon,> 100 µM
same,TGI,786-0 renal,> 100 µM
same,TGI,NCI-H226 lung,> 100 µM
same,TGI,SK-OV-3 ovarian,> 100 µM
same,TGI,SK-MEL-28 melanoma,> 100 µM
same,TGI,RXF 393 renal,> 100 µM
same,TGI,UACC-257 melanoma,> 100 µM
same,TGI,SK-MEL-5 melanoma,> 100 µM
same,TGI,HCT-116 colon,> 100 µM
same,TGI,NCI-H23 lung,> 100 µM
same,TGI,NCI-H522 lung,> 100 µM
same,TGI,UACC-62 melanoma,> 100 µM
same,TGI,MDA-N,> 100 µM
same,TGI,MDA-MB-435,> 100 µM
same,TGI,HCT-15 colon,> 100 µM
same,TGI,OVCAR-3 ovarian,> 100 µM
same,TGI,U251 CNS,> 100 µM
same,TGI,SK-MEL-2 melanoma,> 100 µM
same,TGI,SN12C renal,> 100 µM
same,TGI,SW-620 colon,> 100 µM
same,TGI,SF-539 CNS,> 100 µM
same,TGI,SF-268 CNS,> 100 µM
same,TGI,SNB-75 CNS,> 100 µM
same,TGI,HT29 colon,> 100 µM
same,TGI,NCI/ADR-RES ovarian,> 100 µM
same,TGI,HOP-92 NSCLC,> 100 µM
same,TGI,SR leukemia,> 100 µM
same,TGI,KM12 colon,> 100 µM
same,TGI,CAKI-1 renal,> 100 µM
same,TGI,DU-145 prostate,> 100 µM
same,TGI,RPMI-8226 leukemia,> 100 µM
same,TGI,MOLT-4 leukemia,> 100 µM
same,TGI,A498 renal,98.7 µM
same,TGI,LOX IMVI melanoma,> 100 µM
same,TGI,OVCAR-5 ovarian,> 100 µM
same,TGI,OVCAR-4 ovarian,> 100 µM
same,TGI,HOP-62 NSCLC,> 100 µM
same,TGI,SNB-19 CNS,> 100 µM
same,TGI,TK-10 renal,> 100 µM
same,TGI,HCC-2998 colon,> 100 µM
same,TGI,EKVX NSCLC,> 100 µM
same,TGI,NCI-H460 lung,> 100 µM
same,TGI,SF-295 CNS,> 100 µM
same,TGI,CCRF-CEM leukemia,> 100 µM
same,TGI,ACHN renal,> 100 µM
same,TGI,M14 melanoma,> 100 µM
same,TGI,HS 578T breast,> 100 µM
same,TGI,MALME-3M melanoma,> 100 µM
same,TGI,BT-549 breast,> 100 µM
same,TGI,HL-60(TB) leukemia,> 100 µM
same,TGI,MDA-MB-231 breast,> 100 µM
same,TGI,K-562 leukemia,> 100 µM
same,TGI,A549 NSCLC,> 100 µM
same,TGI,OVCAR-8 ovarian,> 100 µM
same,TGI,IGROV1 ovarian,> 100 µM
same,TGI,PC-3 prostate,> 100 µM
same,TGI,MCF7 breast,> 100 µM
